Experimental data published in US7611873B1, “Method for producing L-methionine by fermentation” (priority 1998, dated 2009).
Read-outs that look alike come from different tables or passages of the source.

Columns and labels:
Type in all cases: biochemical
[1] = biological target: T1, homoserine transsuccinylase (HTS) of W3110 strain (wild-type) (Escherichia coli, UniProt P07623); assay: HTS activity in crude enzyme extract in the presence of inhibitors, W3110 (wild strain); conditions: no addition 22.3
T1 construct: The HTS activity in the crude enzyme extract was measured; endogenous in cells; host or cells: E. coli W3110 (wild strain), desalted crude enzyme extract
Experimental: (§1) In order to confirm the effect of the metJ deletion by the recombination, a crude enzyme extract was prepared from the cells, and the activities of HTS and cystathionine synthase were measured. The W3110 strain and the WΔJ strain were each inoculated to 2 ml of LB medium, and cultured at 37° C. overnight. 1 ml of the medium was centrifuged at 5,000 rpm for 10 minutes, and the cells were washed twice with 0.9% saline. The obtained cell were suspended in 1 ml of 0.9% saline, 0.5 ml of which was inoculated to 50 ml of Davis-Mingioli minimal medium (Davis B. D., and Mingioli, E. S., J. Bacteriol., 60, 17-28 (1950)) containing 5 mM L-methionine. The cells were cultured at 37° C. for 24 hours, then the medium was centrifuged at 8,000 rpm for 10 minutes, and the cells were washed twice with 0.9% saline. The cells were suspended in 3 ml of 50 mM potassium phosphate buffer (pH 7.5) containing 1 mM dithiothreitol. This suspension was subjected to a cell disruption treatment at 4° C. with a power of 150 W for 5 minutes by using an ultrasonicator (Kubota Co.). The sonicated suspension was centrifuged at 15,000 rpm for 30 minutes, and the supernatant was desalted in a Sephadex G-50 column (Pharmacia) to obtain a crude enzyme extract. The HTS activity and the cystathionine synthase activity in the crude enzyme extract were measured.
(§2) As for the HTS activity, 5 μl of the crude enzyme extract was added to a reaction mixture comprising 0.1 M potassium phosphate (pH 7.5), 1 mM succinyl-coenzyme A (Sigma), 0.2 nM DL-[^14C]homoserine (Muromachi Chemical Industry), and 0.2 mM L-homoserine to obtain a volume of 50 μl, and allowed to react at 30° C. for 10 minutes. 1 μl of the reaction mixture was spotted on a cellulose plate (Merck), and developed with a mixed solvent containing acetone, butanol, water, and diethylamine at a ratio of 10:10:5:2. After the plate was air-dried, autoradiography was performed by using an image analyzer (Fuji Photo Film).
(§3) The cells were washed twice with 1 ml of 0.9% saline, and suspended in 1 ml of 0.9% saline, 0.5 ml of which was inoculated to 50 ml of minimal medium and cultured at 37° C. for one day. The medium was centrifuged at 8,000 rpm for 10 minutes, and the cells were washed twice with 1 ml of 0.9% saline. The obtained cells were suspended in 3 ml of 50 mM potassium phosphate buffer (pH 7.5) containing 1 mM dithiothreitol, and a crude enzyme extract was obtained in the same manner as in Example 1. The HTS activity in the crude enzyme extract was measured with the reaction composition mentioned in Example 1 in the presence of an inhibitor.

[2] = biological target: T2, HTS derived from MM resistant strain WMM4 (296th isoleucine changed to serine) (Escherichia coli, UniProt P07623, I296S); conditions: for HTS activity in the presence of inhibitor: WMM4, no addition 4.5; for Inhibition of HTS activity (in words): WMM4 strain, compared with wild strain
T2 construct: The HTS activity in the crude enzyme extract was measured; endogenous in cells; host or cells: E. coli WMM4 (spontaneous MM-resistant mutant of W3110), crude enzyme extract
Experimental: as §1, §2
(§4) Chromosomal DNA was prepared from these resistant strains. PCR was performed by using each chromosomal DNA as a template and primers having the sequences represented as SEQ ID NOS: 21 and 22 to amplify the metA gene. The nucleotide sequence of each amplification fragment was determined by using primers for amplification of which nucleotide sequences are represented as SEQ ID NOS: 21 and 22, and primers having the sequences represented as SEQ ID NOS: 23 and 24.
as §3

[3] = biological target: T3, HTS derived from MM resistant strain WMM9 (arginine 27 changed to cysteine) (Escherichia coli, UniProt P07623, R27C); conditions: for HTS activity in the presence of inhibitor: WMM9, no addition 5.0; for Inhibition of HTS activity (in words): WMM9 strain, compared with wild strain
T3 construct: The HTS activity in the crude enzyme extract was measured; endogenous in cells; host or cells: E. coli WMM9 (spontaneous MM-resistant mutant of W3110), crude enzyme extract
Experimental: as §1, §2, §4, §3

[4] = biological target: T4, HTS derived from MM resistant strain WMM5 (proline 298 changed to leucine) (Escherichia coli, UniProt P07623, P298L); conditions: for HTS activity in the presence of inhibitor: WMM5, no addition 4.5; for Inhibition of HTS activity (in words): WMM5 strain, compared with wild strain
T4 construct: The HTS activity in the crude enzyme extract was measured; endogenous in cells; host or cells: E. coli WMM5 (spontaneous MM-resistant mutant of W3110), crude enzyme extract
Experimental: as §1, §2, §4, §3

[5] = biological target: T5, HTS derived from MM resistant strain WMM7 (IS2 insertion, proline 298 and subsequent residues changed) (Escherichia coli, UniProt P07623); conditions: no addition 0.0 (activity undetectable)
T5 construct: The HTS activity in the crude enzyme extract was measured; endogenous in cells; host or cells: E. coli WMM7 (MM-resistant mutant of W3110 with IS2 in metA), crude enzyme extract
Experimental: as §1, §2, §4, §3

T3 sequence (P07623 whole entry R27C): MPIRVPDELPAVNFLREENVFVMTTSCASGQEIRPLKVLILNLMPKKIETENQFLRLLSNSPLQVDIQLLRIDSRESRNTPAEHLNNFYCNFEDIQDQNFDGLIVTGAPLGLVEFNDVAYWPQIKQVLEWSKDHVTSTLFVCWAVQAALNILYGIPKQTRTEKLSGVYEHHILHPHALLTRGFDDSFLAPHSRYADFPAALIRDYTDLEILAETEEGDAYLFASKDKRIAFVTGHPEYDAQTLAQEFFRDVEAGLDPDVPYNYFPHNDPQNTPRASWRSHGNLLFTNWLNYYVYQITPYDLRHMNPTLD
T5 sequence (P07623 other isoform, or with tags, fused parts or gaps, stated change not applied): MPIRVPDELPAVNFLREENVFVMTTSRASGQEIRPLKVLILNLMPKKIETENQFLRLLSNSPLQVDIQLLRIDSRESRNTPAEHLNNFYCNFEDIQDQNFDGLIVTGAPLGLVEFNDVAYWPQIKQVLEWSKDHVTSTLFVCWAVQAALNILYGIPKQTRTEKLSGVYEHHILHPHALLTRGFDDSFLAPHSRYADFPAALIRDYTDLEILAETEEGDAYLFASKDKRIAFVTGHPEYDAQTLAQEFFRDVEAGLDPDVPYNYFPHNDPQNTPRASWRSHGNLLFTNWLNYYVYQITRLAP
T2 sequence (P07623 whole entry I296S): as the sequence (P07623 whole entry R27C) above, with C27R, I296S counted along it
T4 sequence (P07623 whole entry P298L): as the sequence (P07623 whole entry R27C) above, with C27R, P298L counted along it
T1 sequence (P07623 whole entry): as the sequence (P07623 whole entry R27C) above, with C27R counted along it

Compound | HTS activity in the presence of inhibitor ([1]; 0.1 mM inhibitor) [mmol/min/mg protein] | HTS activity in the presence of inhibitor ([1]; 1 mM inhibitor) [mmol/min/mg protein] | HTS activity in the presence of inhibitor ([2]; 0.1 mM inhibitor) [mmol/min/mg protein] | HTS activity in the presence of inhibitor ([2]; 1 mM inhibitor) [mmol/min/mg protein] | Inhibition of HTS activity (in words) [2] | HTS activity in the presence of inhibitor ([3]; 0.1 mM inhibitor) [mmol/min/mg protein] | HTS activity in the presence of inhibitor ([3]; 1 mM inhibitor) [mmol/min/mg protein] | Inhibition of HTS activity (in words) [3] | HTS activity in the presence of inhibitor ([4]; 0.1 mM inhibitor) [mmol/min/mg protein] | HTS activity in the presence of inhibitor ([4]; 1 mM inhibitor) [mmol/min/mg protein] | Inhibition of HTS activity (in words) [4] | HTS activity in the presence of inhibitor ([5]; 0.1 mM inhibitor) [mmol/min/mg protein] | HTS activity in the presence of inhibitor ([5]; 1 mM inhibitor) [mmol/min/mg protein]
CSCC[C@H](N)C(=O)O [Met, L-methionine] | 14.3 | 0.8 | 4.5 | 4.0 | reduced considerably | 2.5 | 2.2 | reduced considerably | 4.2 | 4.0 | reduced considerably | 0.0 | 0.0
CSCCC(C)(N)C(=O)O (racemic) [MM, α-methyl-DL-methionine] | 18.6 | 7.0 | 4.1 | 4.6 | canceled | 4.9 | 2.7 | canceled | 4.6 | 4.8 | canceled | 0.0 | 0.0
C[S+](CC[C@H](N)C(=O)[O-])C[C@H]1O[C@@H](n2cnc3c(N)ncnc32)[C@H](O)[C@@H]1O (stereo partly drawn) [SAM, S-adenosylmethionine] | 17.0 | 3.0 | 4.6 | 2.6 | tendency of cancellation | 1.1 | 0.5 | hardly canceled | 3.6 | 3.3 | tendency of cancellation | 0.0 | 0.0
